Results: patent US20210127673A1, “HERBICIDES” (SYNGENTA PARTICIPATIONS AG, priority 2016, published 2021)

Experiments:
Assay type in all cases: in vivo
[1] = system: Echinochloa crus-galli (ECHCG); assay: Pre-emergence herbicidal activity, Echinochloa crus-galli; conditions: evaluated after 13 days; for ECHCG damage score (0-5): Test 1b
How it was run: (§1)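 Damage is rated on a 0–5 scale (0 = no damage, 5 = total damage) 13 days after treatment. Pots of sown seed are sprayed one day after sowing with an aqueous solution from acetone/water (50:50) with 0.5% Tween 20, then kept under controlled glasshouse conditions.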

Lolium perenne (LOLPE) [2] = assay: Pre-emergence herbicidal activity, Lolium perenne; set-up: key: 5=total damage to plant; 0=no damage to plant; conditions: evaluated after 13 days; for LOLPE damage score (0-5): Test 1b
How it was run: as §1

Zea Mays (ZEAMX) [3] = assay: Pre-emergence herbicidal activity, Zea Mays; conditions: 1000 g/ha, evaluated after 13 days, Test 1b
Protocol: (§2) Seeds of a variety of test species were sown in standard soil in pots: Triticum aestivium (TRZAW), Avena fatua (AVEFA), Alopecurus myosuroides (ALOMY), Echinochloa crus-galli (ECHCG), Lolium perenne (LOLPE), Zea Mays (ZEAMX), Abutilon theophrasti (ABUTH), Amaranthus retroflexus (AMARE) and Setaria faberi (SETFA). After cultivation for one day (pre-emergence) under controlled conditions in a glasshouse (at 24/16° C., day/night; 14 hours light; 65% humidity), the plants were sprayed with an aqueous spray solution derived from the formulation of the technical active ingredient in acetone/water (50:50) solution containing 0.5% Tween 20 (polyoxyethelyene sorbitan monolaurate, CAS RN 9005-64-5). The test plants were then grown in a glasshouse under controlled conditions (at 24/16°, day/night; 14 hours light; 65% humidity) and watered twice daily. After 13 days, the test was evaluated (5=total damage to plant; 0=no damage to plant).

[4] = system: Abutilon theophrasti (ABUTH); assay: Pre-emergence herbicidal activity, Abutilon theophrasti; set-up: key: 5=total damage to plant; 0=no damage to plant; conditions: 1000 g/ha, evaluated after 13 days, Test 1b
Protocol: as §2

[5] = system: Amaranthus retroflexus (AMARE); assay: Pre-emergence herbicidal activity, Amaranthus retroflexus; set-up: key: 5=total damage to plant; 0=no damage to plant; conditions: 1000 g/ha, evaluated after 13 days, Test 1b
Protocol: as §2

Setaria faberi (SETFA) [6] = assay: Pre-emergence herbicidal activity, Setaria faberi; set-up: key: 5=total damage to plant; 0=no damage to plant; conditions: evaluated after 13 days; for SETFA damage score (0-5): Test 1b
How it was run: as §1

[7] = system: Echinochloa crus-galli (ECHCG); assay: Post-emergence herbicidal activity, Echinochloa crus-galli; set-up: key: 5=total damage to plant; 0=no damage to plant; conditions: evaluated after 13 days; for ECHCG damage score (0-5): Test 2b
How it was run: (§3)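 Post-em, 8 d plants, pots; acetone:water 1:1 + 0.5% Tween 20 spray; 24/16 °C, 14 h photoperiod, 65% RH; 13 d readout, 0–5 phytotoxicity scale.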

Lolium perenne (LOLPE) [8] = assay: Post-emergence herbicidal activity, Lolium perenne; conditions: evaluated after 13 days; for LOLPE damage score (0-5): Test 2b
How it was run: as §3

Zea Mays (ZEAMX) [9] = assay: Post-emergence herbicidal activity, Zea Mays; set-up: key: 5=total damage to plant; 0=no damage to plant; conditions: 1000 g/ha, evaluated after 13 days, Test 2b
Protocol: (§4) Seeds of a variety of test species were sown in standard soil in pots: Triticum aestivium (TRZAW), Avena fatua (AVEFA), Alopecurus myosuroides (ALOMY), Echinochloa crus-galli (ECHCG), Lolium perenne (LOLPE), Zea Mays (ZEAMX), Abutilon theophrasti (ABUTH), Amaranthus retroflexus (AMARE) and Setaria faberi (SETFA). After 8 days cultivation (post-emergence) under controlled conditions in a glasshouse (at 24/16° C., day/night; 14 hours light; 65% humidity), the plants were sprayed with an aqueous spray solution derived from the formulation of the technical active ingredient in acetone/water (50:50) solution containing 0.5% Tween 20 (polyoxyethelyene sorbitan monolaurate, CAS RN 9005-64-5). The test plants were then grown in a glasshouse under controlled conditions (at 24/16° C., day/night; 14 hours light; 65% humidity) and watered twice daily. After 13 days, the test was evaluated (5=total damage to plant; 0=no damage to plant).

[10] = system: Abutilon theophrasti (ABUTH); assay: Post-emergence herbicidal activity, Abutilon theophrasti; set-up: key: 5=total damage to plant; 0=no damage to plant; conditions: 1000 g/ha, evaluated after 13 days, Test 2b
Protocol: as §4

[11] = system: Amaranthus retroflexus (AMARE); assay: Post-emergence herbicidal activity, Amaranthus retroflexus; set-up: key: 5=total damage to plant; 0=no damage to plant; conditions: 1000 g/ha, evaluated after 13 days, Test 2b
Protocol: as §4

Setaria faberi (SETFA) [12] = assay: Post-emergence herbicidal activity, Setaria faberi; set-up: key: 5=total damage to plant; 0=no damage to plant; conditions: evaluated after 13 days; for SETFA damage score (0-5): Test 2b
How it was run: as §3

[13] = system: Triticum aestivium (TRZAW); assay: Pre-emergence herbicidal activity, Triticum aestivium; set-up: key: 5=total damage to plant; 0=no damage to plant; conditions: evaluated after 13 days
How it was run: as §1

Avena fatua (AVEFA) [14] = assay: Pre-emergence herbicidal activity, Avena fatua; set-up: key: 5=total damage to plant; 0=no damage to plant; conditions: evaluated after 13 days
How it was run: as §1

[15] = system: Alopecurus myosuroides (ALOMY); assay: Pre-emergence herbicidal activity, Alopecurus myosuroides; set-up: key: 5=total damage to plant; 0=no damage to plant; conditions: evaluated after 13 days
How it was run: as §1

[16] = system: Triticum aestivium (TRZAW); assay: Post-emergence herbicidal activity, Triticum aestivium; set-up: key: 5=total damage to plant; 0=no damage to plant; conditions: evaluated after 13 days
How it was run: as §3

Avena fatua (AVEFA) [17] = assay: Post-emergence herbicidal activity, Avena fatua; conditions: evaluated after 13 days
How it was run: as §3

[18] = system: Alopecurus myosuroides (ALOMY); assay: Post-emergence herbicidal activity, Alopecurus myosuroides; set-up: key: 5=total damage to plant; 0=no damage to plant; conditions: evaluated after 13 days
How it was run: as §3

| Compound | ECHCG damage score (0-5) ([1]; 1000 g/ha) | LOLPE damage score (0-5) (Lolium perenne (LOLPE) [2]; 1000 g/ha) | ZEAMX damage score (0-5) (Zea Mays (ZEAMX) [3]) | ABUTH damage score (0-5) [4] | AMARE damage score (0-5) [5] | SETFA damage score (0-5) (Setaria faberi (SETFA) [6]; 1000 g/ha) | ECHCG damage score (0-5) ([7]; 1000 g/ha) | LOLPE damage score (0-5) (Lolium perenne (LOLPE) [8]; 1000 g/ha) | Control of TRAZW after pre-emergence application (score 0-5) ([13]; 1000 g/ha) | Control of AVEFA after pre-emergence application (score 0-5) (Avena fatua (AVEFA) [14]; 1000 g/ha) | Control of ALOMY after pre-emergence application (score 0-5) ([15]; 1000 g/ha) | Control of ECHCG after pre-emergence application (score 0-5) ([1]; 1000 g/ha) | Control of LOLPE after pre-emergence application (score 0-5) (Lolium perenne (LOLPE) [2]; 1000 g/ha) | Control of SETFA after pre-emergence application (score 0-5) (Setaria faberi (SETFA) [6]; 1000 g/ha) | Control of TRAZW after post-emergence application (score 0-5) ([16]; 1000 g/ha) | Control of AVEFA after post-emergence application (score 0-5) (Avena fatua (AVEFA) [17]; 1000 g/ha) | Control of ALOMY after post-emergence application (score 0-5) ([18]; 1000 g/ha) | Control of ECHCG after post-emergence application (score 0-5) ([7]; 1000 g/ha) | Control of LOLPE after post-emergence application (score 0-5) (Lolium perenne (LOLPE) [8]; 1000 g/ha) | Control of SETFA after post-emergence application (score 0-5) (Setaria faberi (SETFA) [12]; 1000 g/ha) | other results |
| --- | --- | --- | --- | --- | --- | --- | --- | --- | --- | --- | --- | --- | --- | --- | --- | --- | --- | --- | --- | --- | --- |
| CCOC(=O)Nc1ccc(-c2cncc(F)c2)nc1C(F)(F)F [Compound B15, ethyl N-[6-(5-fluoro-3-pyridyl)-2-(trifluoromethyl)-3-pyridyl]carbamate] | 1 | 0 | 4 | 0 | 0 | 4 | 3 | 2 |  |  |  |  |  |  |  |  |  |  |  |  | ZEAMX damage score (0-5) (Zea Mays (ZEAMX) [9]): 5; ABUTH damage score (0-5) [10]: 0; AMARE damage score (0-5) [11]: 1; SETFA damage score (0-5) (Setaria faberi (SETFA) [12]; 1000 g/ha): 4 |
| Cc1nc(-c2cncnc2)ccc1NC(=O)OC(C)(C)C [Compound B28] | 2 | 1 | 3 | 0 | 0 | 2 | 4 | 4 |  |  |  |  |  |  |  |  |  |  |  |  | ZEAMX damage score (0-5) (Zea Mays (ZEAMX) [9]): 5; ABUTH damage score (0-5) [10]: 0; AMARE damage score (0-5) [11]: 0; SETFA damage score (0-5) (Setaria faberi (SETFA) [12]; 1000 g/ha): 4 |
| CN(C(=O)OC(C)(C)C)c1ccc(-c2cncc(F)c2)nc1C(F)(F)F [Compound B29, tert-butyl N-[6-(5-fluoro-3-pyridyl)-2-(trifluoromethyl)-3-pyridyl]-N-methyl-carbamate] | 4 | 1 | 3 | 1 | 2 | 4 | 4 | 3 |  |  |  |  |  |  |  |  |  |  |  |  | ZEAMX damage score (0-5) (Zea Mays (ZEAMX) [9]): 5; ABUTH damage score (0-5) [10]: 1; AMARE damage score (0-5) [11]: 1; SETFA damage score (0-5) (Setaria faberi (SETFA) [12]; 1000 g/ha): 5 |
| CC(C)(C#N)OC(=O)Nc1ccc(-c2cncc(F)c2)nc1C(F)(F)F [Compound B118] |  |  |  |  |  |  |  |  | 0 | 0 | 0 | 2 | 0 | 4 | 0 | 3 | 0 | 3 | 1 | 4 |  |
| CC(C)CNC(=O)Nc1ccc(-c2cncc(F)c2)nc1C(F)(F)F [Compound B90] |  |  |  |  |  |  |  |  |  |  |  |  |  |  |  |  |  |  |  |  | Control of TRAZW after pre-emergence application (score 0-5) ([13]; 250 g/ha): 0; Control of AVEFA after pre-emergence application (score 0-5) (Avena fatua (AVEFA) [14]; 250 g/ha): 1; Control of ALOMY after pre-emergence application (score 0-5) ([15]; 250 g/ha): 0; Control of ECHCG after pre-emergence application (score 0-5) ([1]; 250 g/ha): 4; Control of LOLPE after pre-emergence application (score 0-5) (Lolium perenne (LOLPE) [2]; 250 g/ha): 1; Control of SETFA after pre-emergence application (score 0-5) (Setaria faberi (SETFA) [6]; 250 g/ha): 5; Control of TRAZW after post-emergence application (score 0-5) ([16]; 250 g/ha): 0; Control of AVEFA after post-emergence application (score 0-5) (Avena fatua (AVEFA) [17]; 250 g/ha): 3; Control of ALOMY after post-emergence application (score 0-5) ([18]; 250 g/ha): 0; Control of ECHCG after post-emergence application (score 0-5) ([7]; 250 g/ha): 4; Control of LOLPE after post-emergence application (score 0-5) (Lolium perenne (LOLPE) [8]; 250 g/ha): 2; Control of SETFA after post-emergence application (score 0-5) (Setaria faberi (SETFA) [12]; 250 g/ha): 5 |
| CN1CCN(C(=O)Nc2ccc(-c3cncc(F)c3)nc2C(F)(F)F)CC1 [Compound B48] |  |  |  |  |  |  |  |  | 0 | 1 | 0 | 3 | 1 | 4 | 0 | 2 | 0 | 4 | 1 | 5 |  |
| O=C(Nc1ccc(-c2cncc(F)c2)nc1C(F)(F)F)OCc1ccccc1 [Compound B53] |  |  |  |  |  |  |  |  | 0 | 1 | 0 | 2 | 1 | 4 | 1 | 4 | 1 | 5 | 2 | 5 |  |
| CC(C)(C)OC(=O)N(CC1CC1)c1ccc(-c2cncc(F)c2)nc1C(F)(F)F [Compound B10] |  |  |  |  |  |  |  |  | 0 | 2 | 1 | 3 | 1 | 5 | 1 | 3 | 1 | 4 | 3 | 5 |  |
